Laboratory results as given in PMC6010545, “Identification of a Novel Polyamine Scaffold With Potent Efflux Pump Inhibition Activity Toward Multi-Drug Resistant Bacterial Pathogens” (Frontiers in Microbiology, 2018).
Values after ≈ are worked out from the molar mass of the structure shown. Values joined by “and” are separate entries in the source; they are usually repeats but may differ in a detail not shown here. Equal values may be shown once. Read-outs that look alike come from different tables or passages of the source. No end group written: not given here.

Tests used:
[1] = MTT cytotoxicity assay; assay type: cell-based; settings: human, 25 μg mL^-1, 48 h, read-out: percent recovery (cell viability)
Protocol: To assess toxicity of polyamine compounds we used HepG2 human liver carcinoma cells and Hek293T human embryonic kidney epithelial cells. The viability of cell lines was determined using a 3-(4,5-dimethylthiazol-2-yl)-2,5-diphenyltetrazolium bromide (MTT) molecular probe as previously described by our group ([Fleeman et al., 2015]). Briefly, 247, 266, 271 (Hek293T), or 250, 271, 314 (HepG2), alongside control efflux pump inhibitor PaβN, were diluted in 10% DMF from 25 μg mL^-1 to 3 μg mL^-1 using twofold dilutions, before being added to cells in DMEM with 10% FBS and 1% penicillin/streptomycin. Cells were then incubated for 48 h at 37°C with 5% CO2. Following this, viability was assessed by the addition of MTT and measuring the OD570 in a Biotek plate reader. Percent recovery was determined compared to no drug controls.

[2] = tested on: P. aeruginosa proficient (1419) and deficient (1418) strain; assay: Aztreonam combination testing in efflux proficient and deficient strains; assay type: cell-based; settings: strain 1419 (efflux proficient); polyamine 12.5 μg mL^-1, ½ X MIC aztreonam
Protocol: FIGURE 6 Confirming efflux pump inhibition by polyamines using efflux deficient strains. (A) A P. aeruginosa proficient (1419) and deficient (1418) strain were subjected to combination testing of the polyamines at 12.5 μg mL^-1 and ½ X MIC of aztreonam. Fold potentiation was calculated by dividing the CFU mL^-1 for aztreonam only by the CFU mL^-1 of the combined treatment groups. (B) Lead polyamine 247 was assessed for its ability to potentiate the activity of chloramphenicol toward S. aureus strain United States 300 and its norA mutant. Shown is the potentiated chloramphenicol EC90 calculated as described in A. Error bars are shown ± SEM.

[3] = tested on: tetracycline-resistant P. aeruginosa isolate 1419; assay: Checkerboard potentiation assay with tetracycline; assay type: cell-based, Pseudomonas aeruginosa; settings: for TPI (inhibitory concentration of polyamine alone): 25 µg ml-1 highest tested
Protocol: (§1) Scaffold ranking library samples and individual polyamines were screened using checkerboard inhibitory assays to assess the potentiation of tetracycline and chloramphenicol. The test utilized a 96-well plate microtiter assay where the concentration of the scaffold or individual polyamine was decreased from 25 to 0.8 μg mL^-1 (average molarity of mixture samples 65 to 4 μM) along the rows, and the concentration of tetracycline or chloramphenicol was increased from 0.4 to 100 μM across the columns. […] However, with the known antibiotics, we report EC90 values in μM, which more accurately describes purified compounds. Plates were incubated statically at 37°C for 20 h, and the optical density (OD600) was determined using a Synergy 2 plate reader (BioTek). Potentiation modeling (detailed below) was performed to determine fold change in the 50 and 90% effective concentration of tetracycline or chloramphenicol.
(§2) Potentiation was quantified using a mathematical model developed by our group to assess the ability of library samples and individual compounds to effectively enhance the activity of tetracycline or chloramphenicol ([Hoel, 1987]). […] In this way, only libraries and compounds that potentiated tetracycline or chloramphenicol activity were pursued. The model is based on the following equation for modeling the percentage activity of a mixture of two agents with independent action ([Hoel, 1987]):
%Antibiotic & Comp(X1,X2)=%Antibiotic(X1)+%Comp(X2)−%Antibiotic(X1)⋅%Comp(X2)
Here, x1 and x2 are the concentrations of antibiotic (tetracycline or chloramphenicol) and library/compound (Comp) tested, respectively. This equation can be rearranged to model the effective percent activity (EC) of the antibiotic alone, after accounting for compound activity:
Eff%Antibiotic(X1)=%Antibiotic & Compound(X1,X2)−%Compound(X2)/1−%Compound(X2)
Thus, the model-adjusted checkerboards show the antibiotic activity post-potentiation, and from that one can determine the true change in Mic.

[4] = tested on: P. aeruginosa (1419); assay: Checkerboard potentiation assay with chloramphenicol; assay type: cell-based; settings: increasing polyamine concentration
Protocol: as §1
as §2, with “The model is based on the following equation for modeling the percentage activity of a mixture of two agents with independent action ([Hoel, 1987]):” left out

[5] = tested on: A. baumannii 1643; assay: Minimum inhibitory concentrations of antibiotics, A. baumannii isolate; assay type: cell-based; settings: Acinetobacter baumannii; strain 1643; read-out: minimal inhibitory concentration
Protocol: (§3) The bacterial strains used in this study are multi-drug resistant clinical isolates that have previously been described (Supplementary Table S1; [Fleeman et al., 2015]). Organisms were grown in tryptic soy broth (TSB) for overnight cultures and cation adjusted Mueller Hinton broth (CA-MH II) was used for experimental procedures. All incubations were performed at 37°C. The minimum inhibitory concentrations (MICS) for all antibiotics tested against these organisms are shown in Supplementary Table S1.

[6] = tested on: P. aeruginosa; assay: Minimum inhibitory concentrations of antibiotics, P. aeruginosa isolates; assay type: cell-based; settings: Pseudomonas aeruginosa, read-out: minimal inhibitory concentration
Protocol: as §3

[7] = tested on: P. aeruginosa (1419); assay: Bactericidal assessment in combination with tetracycline; settings: Pseudomonas aeruginosa, read-out: percent recovery (bacterial viability)
Protocol: Lead agents were screened for bactericidal activity as described by us previously ([Van Horn et al., 2014]; [Fleeman et al., 2015]), with the following modifications. Varying concentrations of tetracycline (0, 12, 25, and 50 μM) were used in combination with the MPC (25 μM) of lead agents 247, 250, 266, 271, and 314 against P. aeruginosa. […] Biofilm experiments were performed similar to those described by us previously ([Fleeman et al., 2015]; [von Salm et al., 2016]), with the following modifications. Polyamine agents 247, 250, 266, 271, and 314 were added at MPC into biofilm containing wells alongside varying concentrations of tetracycline (0, 12, 25, and 50 μM). Cellular viability was determined by serial dilution after a 20-h incubation at 37°C. Values were converted to percent recovery using no treatment controls. All data was generated from three biological replicates and two technical replicates.

[8] = tested on: P. aeruginosa (1419); assay: Bacterial membrane depolarization (DiSC3 dye); assay type: cell-based; settings: 25 μg mL^-1
Protocol: To determine the level of membrane depolarization by polyamine compounds a 3,3′-dipropylthiadicarbocyanine Iodide (DiSC3) fluorescence dye was used. Exponentially growing cultures were prepared as described above, before being harvested by centrifugation. Cells were next washed in buffer a [5 mM Hepes (pH 7.2), 5 mM glucose] and resuspended to an OD600 of 0.2 in the same buffer containing 100 mM KCL and 2 μM DiSC3. Samples were allowed to equilibrate for 15 min at room temperature to ensure uptake and quenching of the dye in bacterial membranes. Cells were aliquoted into 96-well plates and polyamines were added alongside the known efflux inhibitor PAβN (all at 25 μg mL^-1). Nisin (25 μg mL^-1) was used as a positive control to display depolarization effects. A Biotek plate reader was used to monitor fluorescence of wells, with a 622 nm excitation and 670 nm emission. For graphical representation, the maximum relative fluorescence at 2 min was used for comparison of lead agents to controls.

[9] = HepG2 human liver carcinoma cells
[10] = 25 µg ml-1 TPI, EC50 tetracycline no TPI / with TPI
[11] = 25 µg ml-1 TPI, EC90 tetracycline no TPI / with TPI
[12] = EC50 tetracycline without EPI / with EPI
[13] = EC90 tetracycline without EPI / with EPI
[14] = Pseudomonas aeruginosa, 20 h, inhibitor alone, 25 μg mL^-1 highest concentration tested, * = EC50, read-out: EPI* (inhibitory concentration of efflux pump inhibitor alone)

Molecule	recovery at 48 h, 25 μg mL^-1 [1, 9]	FP* (fold potentiation of tetracycline EC50) [3, 10]	FP# (fold potentiation of tetracycline EC90) [3, 11]	FP* (fold potentiation of tetracycline EC50) [3, 12]	FP# (fold potentiation of tetracycline EC90) [3, 13]	EC50 [3, 14]	TPI (inhibitory concentration of polyamine alone) [3]	also measured
NCC[C@@H](CN)NC[C@H](Cc1ccccc1)NCCc1ccccc1 [compound 250]	80%	7 fold	7.8 fold	7.0 fold	7.8 fold	> 25 µg/mL	> 25 µg/mL	potentiation of aztreonam [2]: best potentiators of aztreonam
CNCCCC[C@H](CN)NC[C@H](Cc1ccccc1)NCCc1ccccc1 [compound 266]		6.8 fold	5.8 fold	6.8 fold	5.8 fold	> 25 µg/mL	> 25 µg/mL	recovery at 48 h, 25 μg mL^-1 ([1]; Hek293T human embryonic kidney epithelial cells, vs solvent only controls): 72%; potentiation of chloramphenicol EC90 [4]: highest potentiation values
NCCC[C@@H](CN[C@H](CN)Cc1ccccc1)NCCc1ccccc1 [compound 314]	77%	5 fold	7.5 fold	5 fold and 5.0 fold	7.5 fold	> 25 µg/mL	> 25 µg/mL	
C[C@H]1COc2c(N3CCN(C)CC3)c(F)cc3c(=O)c(C(=O)O)cn1c23 [levofloxacin]								MIC [5]: 100 µM (≈ 36.1 µg/mL)
CN(C)[C@@H]1C(O)=C(C(N)=O)C(=O)[C@@]2(O)C(O)=C3C(=O)c4c(O)cccc4[C@@](C)(O)[C@H]3C[C@@H]12 [tetracycline]								MIC ([6]; strain 1418): 200 µM (≈ 88.9 µg/mL); MIC ([6]; strain 1419): 100 µM (≈ 44.4 µg/mL); EC50 ([3]; Pseudomonas aeruginosa, no polyamine, average across replicates, read-out: tetracycline alone EC50): 47.8 µM; EC90 ([3]; Pseudomonas aeruginosa, no library or polyamine, average across replicates, read-out: tetracycline alone EC90): 82.5 µM; viability at 12 µM [7]: 53%; viability at 25 µM [7]: 35%; viability at 50 µM [7]: 1%
nisin (ITSISLCTPGCKTGALMGCNMKTATCHCSIHVSK; cysteine pairing not given here; also: lantibiotic nisin-A; UniProt P13068 24-57, looked up) [positive control for membrane depolarization]								membrane depolarization (DiSC3 fluorescence change) [8]: strong increase in fluorescence
